Reference: patent US20180110784A1, “SYNTHETIC TLR4 AND TLR7 LIGANDS TO PREVENT, INHIBIT OR TREAT LIVER DISEASE” (The Regents of the University of California, priority 2015, published 2018)
Like-named read-outs stand apart in the source and are kept apart here. Blank lines part the entries; values can stand above or below the compound they belong to.

Key:
Type in all cases: cell-based
IL-6 = IL-6 activity of TLR4 ligands, mouse; parameters: unit not given here
TLR4 [1] = target: TLR4 (Homo sapiens, UniProt O00206+Q9Y6Y9); assay: TLR4 activity, human
Chain of TLR4 (Homo sapiens, UniProt O00206+Q9Y6Y9) (O00206 24-839): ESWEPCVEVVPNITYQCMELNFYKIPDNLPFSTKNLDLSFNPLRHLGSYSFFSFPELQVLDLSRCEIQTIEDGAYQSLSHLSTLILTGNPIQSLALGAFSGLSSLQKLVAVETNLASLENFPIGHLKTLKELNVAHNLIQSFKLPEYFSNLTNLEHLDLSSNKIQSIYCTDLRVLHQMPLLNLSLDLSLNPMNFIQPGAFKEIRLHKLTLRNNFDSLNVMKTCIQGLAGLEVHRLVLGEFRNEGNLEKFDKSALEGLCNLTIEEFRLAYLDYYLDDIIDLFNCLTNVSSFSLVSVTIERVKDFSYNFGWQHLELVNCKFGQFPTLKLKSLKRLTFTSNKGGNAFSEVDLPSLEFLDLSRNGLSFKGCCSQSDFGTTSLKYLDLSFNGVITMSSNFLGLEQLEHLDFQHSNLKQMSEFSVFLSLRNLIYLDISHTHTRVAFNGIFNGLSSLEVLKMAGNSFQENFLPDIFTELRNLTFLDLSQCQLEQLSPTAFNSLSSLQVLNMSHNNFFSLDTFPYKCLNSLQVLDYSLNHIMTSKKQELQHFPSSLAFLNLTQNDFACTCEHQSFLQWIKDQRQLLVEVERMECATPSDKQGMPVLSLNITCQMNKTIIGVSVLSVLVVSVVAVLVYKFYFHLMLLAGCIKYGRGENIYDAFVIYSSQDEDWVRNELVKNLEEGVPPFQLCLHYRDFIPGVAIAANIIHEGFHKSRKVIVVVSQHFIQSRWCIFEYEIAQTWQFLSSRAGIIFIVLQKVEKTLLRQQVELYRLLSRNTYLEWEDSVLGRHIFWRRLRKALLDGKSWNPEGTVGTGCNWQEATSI
Chain of TLR4 (Homo sapiens, UniProt O00206+Q9Y6Y9) (Q9Y6Y9 17-160 limits assumed): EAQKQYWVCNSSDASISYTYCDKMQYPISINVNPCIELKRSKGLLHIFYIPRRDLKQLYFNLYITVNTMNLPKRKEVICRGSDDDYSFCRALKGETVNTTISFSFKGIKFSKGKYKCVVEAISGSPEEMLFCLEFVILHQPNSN

TLR4 [2] = target: T1, TLR4 (Mus musculus, UniProt Q9JHF9+Q9QUK6); assay: TLR4 activity, mouse
T1 sequence (Q9QUK6 26-835): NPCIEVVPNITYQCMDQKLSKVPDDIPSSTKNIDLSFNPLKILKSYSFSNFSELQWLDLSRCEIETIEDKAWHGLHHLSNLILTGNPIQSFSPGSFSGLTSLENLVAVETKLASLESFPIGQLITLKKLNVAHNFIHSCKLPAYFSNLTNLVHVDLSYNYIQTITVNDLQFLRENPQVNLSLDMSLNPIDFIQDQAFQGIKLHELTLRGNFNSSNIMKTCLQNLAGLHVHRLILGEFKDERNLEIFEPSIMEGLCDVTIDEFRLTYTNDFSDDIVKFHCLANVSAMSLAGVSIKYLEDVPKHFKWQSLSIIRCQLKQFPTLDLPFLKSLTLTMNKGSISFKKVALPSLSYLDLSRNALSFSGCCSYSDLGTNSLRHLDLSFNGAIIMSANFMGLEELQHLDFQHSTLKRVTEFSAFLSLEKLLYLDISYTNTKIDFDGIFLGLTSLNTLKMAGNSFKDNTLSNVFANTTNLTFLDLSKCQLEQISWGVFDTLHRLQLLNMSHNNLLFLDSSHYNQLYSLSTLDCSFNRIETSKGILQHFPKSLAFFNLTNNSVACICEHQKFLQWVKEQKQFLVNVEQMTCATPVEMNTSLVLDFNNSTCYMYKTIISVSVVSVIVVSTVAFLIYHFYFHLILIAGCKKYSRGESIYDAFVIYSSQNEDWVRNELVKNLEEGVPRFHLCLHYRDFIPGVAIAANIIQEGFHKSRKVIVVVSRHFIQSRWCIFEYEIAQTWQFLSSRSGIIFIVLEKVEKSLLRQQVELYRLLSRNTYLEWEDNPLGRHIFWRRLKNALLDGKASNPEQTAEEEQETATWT
T1 sequence (Q9JHF9 19-160): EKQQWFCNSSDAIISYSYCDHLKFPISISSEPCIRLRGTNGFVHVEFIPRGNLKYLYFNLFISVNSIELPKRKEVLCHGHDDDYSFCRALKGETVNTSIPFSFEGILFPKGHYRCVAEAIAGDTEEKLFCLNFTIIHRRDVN

IP-10 = IP-10 activity of TLR4 ligands, mouse
IL-8 = IL-8 activity of TLR4 ligands, human; parameters: unit not given here
TLR9 signaling = assay: CpG-DNA-induced TLR9 signaling-mediated inflammatory response in isolated Kupffer cells; details: R848 0.5 μM for 16 hours, then CpG-DNA 5 μg/mL for 4 hours
Procedure: It was examined whether 1Z1 (FIG. 7) inhibits TLR9 signaling, which promotes liver diseases, including non-alcoholic steatohepatitis (NASH) and alcoholic liver disease (ALD). Isolated Kupffer cells were treated with 1Z1 (5 μM) or R848 (0.5 μM) for 16 hours followed by stimulation with CpG-DNA (TLR9 ligand; 5 μg/mL) for 4 hours and inflammatory cytokine expression was then measured. Pretreatment with […], 1Z1, and R848 inhibited production of IL-6, TNFα, IL-1β, CCL5, CXCL1, and CXCL2 in Kupffer cells following CpG-DNA treatment (FIG. 18).

human TLR4 (TLR4 [1]; human): 19
mouse TLR4 (TLR4 [2]; mouse): 9
Compound: COC(=O)CCCn1c2ccccc2c2nc(SCC(=O)NC3CCCCC3)n(-c3ccccc3)c(=O)c21 [Compound 44]
mouse IL-6 (IL-6): 4
mouse IP-10 (IP-10): 19
human IL-8 (IL-8): 124

Compound: CCCCNC(=O)CSc1nc2c([nH]c3ccccc32)c(=O)n1-c1ccccc1 [Compound 23]
mouse IL-6 (IL-6): 49
human TLR4 (TLR4 [1]): 32
mouse TLR4 (TLR4 [2]): 31
mouse IP-10 (IP-10): 61
human IL-8 (IL-8): 29

human TLR4 (TLR4 [1]; human): <1
mouse TLR4 (TLR4 [2]; mouse): 1
Compound: CN(C(=O)CSc1nc2c3ccccc3n(C)c2c(=O)n1-c1ccccc1)C1CCCCC1 [Compound 43]
mouse IL-6 (IL-6): <1
mouse IP-10 (IP-10): <1
human IL-8 (IL-8): 5

Compound: O=C(CSc1nc2c([nH]c3ccccc32)c(=O)n1-c1ccccc1)NC1CCNCC1 [Compound 34]
mouse IL-6 (IL-6): <1
human TLR4 (TLR4 [1]; human): <1
mouse TLR4 (TLR4 [2]; mouse): <1
mouse IP-10 (IP-10): <1
human IL-8 (IL-8): 17

Compound: CCOCc1nc2c(N)nc3ccccc3c2n1CC(C)(C)O [Compound R848]
production of IL-6, TNFα, IL-1β, CCL5, CXCL1, and CXCL2 following CpG-DNA treatment (TLR9 signaling): inhibited
